These results are taken from patent publication US5985874A, “Substituted morpholine derivative and its use as a therapeutic agent” (Merck Sharp & Dohme Ltd., priority 1998, dated 1999).

For one experiment, the system named is cisplatin-induced emesis. The experiment in a line: ferret model of cisplatin-induced emesis (Tattersall et al, Eur. J. Pharmacol. 1993). The class given is in vivo.
For another experiment, the target named is NK1 receptor (Homo sapiens, UniProt P25103). The experiment in a line: NK1 receptor test by the methods of WO 93/01165 (pages 36 to 39). Type of experiment: binding. The conditions noted are these: test methods of WO 93/01165, pages 36 to 39. How it is done: The compound of this invention was tested by the methods set out at pages 36 to 39 of International Patent Specification No. WO 93/01165.
NK1 receptor, sequence (P25103 whole entry): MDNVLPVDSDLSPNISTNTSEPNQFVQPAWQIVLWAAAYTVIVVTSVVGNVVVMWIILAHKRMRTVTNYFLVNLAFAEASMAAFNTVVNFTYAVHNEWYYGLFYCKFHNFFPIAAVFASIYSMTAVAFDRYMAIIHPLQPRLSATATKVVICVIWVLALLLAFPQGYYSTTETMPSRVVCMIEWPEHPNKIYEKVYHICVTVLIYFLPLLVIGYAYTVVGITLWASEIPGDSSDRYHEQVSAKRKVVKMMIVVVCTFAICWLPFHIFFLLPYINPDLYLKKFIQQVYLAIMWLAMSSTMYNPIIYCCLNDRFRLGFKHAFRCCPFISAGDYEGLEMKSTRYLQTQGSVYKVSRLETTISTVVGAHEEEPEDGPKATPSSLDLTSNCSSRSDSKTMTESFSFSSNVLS

In the case of `Cn1cnc(CN2CCO[C@H](O[C@H](CO)c3cc(C(F)(F)F)cc(C(F)(F)F)c3)[C@@H]2c2ccc(F)cc2)n1` [Example 1, 2(R)-(1-(3,5-Bis(trifluoromethyl)phenyl)-2(S)-hydroxyethoxy)-3(S)-(4-fluorophenyl)-4-((1-methyl-1,2,4-triazol-3-yl)methylene)morpholine], the “retching and vomiting induced by cisplatin” value with cisplatin-induced emesis was “attenuate the retching and vomiting induced by cisplatin”. Further, at NK1 receptor, the IC50 (commonly the point on the concentration scale where inhibition reaches its midpoint) is less than 1 nM.
